# Where two headings read alike, the source gives them in different places.
# Legend:
# HBV = experiment: HepAD38 antiviral assay: reduction of viral product accumulation (virion DNA by qPCR, HBsAg or HBeAg by ELISA); type: cell-based, hepatitis B virus; conditions: HepAD38 cells, five days after compound addition, concentration reducing viral product accumulation by 50% relative to no drug controls, read-out: HepAD38 EC50
# Summary of the method: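 EC50 values represent 50% reduction of viral product accumulation in lysates or supernatants relative to untreated controls, with virion DNA read by qPCR and HBsAg/HBeAg by ELISA. Measurements followed 5 days of treatment, or 8 days with compound renewed on d2 and d5. Cells were tetracycline-depleted HepAD38 at 35,000/well, dosed with a 1:200 dilution of DMSO stocks.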
# [1] = Compound toxicity, ATPLite total ATP levels; type: cell-based; conditions: human, HepAD38 cells, three days after compound addition, concentration reducing total ATP levels by 50% relative to no drug controls
# Method: Methods: HepAD38 cells are maintained as previously reported (Ladner et al, Antimicrob. Agents Chemother. 1997, […], 1715). Briefly, cells are passaged upon attaining confluency in DMEM/F12 media in the presence of 10% FBS, Penn/Strep, 250 μg/mL G418, and 1 ug/ml tetracycline. Novel compounds are screened by first washing cells three times with PBS to remove tetracycline, and plating in 96 well plates at 35,000 cells/well. Compounds dissolved in DMSO are then diluted 1:200 into wells containing cells. Five days after compound addition, material is harvested for analysis. For an extended 8 day analysis, cells are plated and treated as described above, but media and compound are refreshed on d2 and d5 post initial treatment.
# Compound toxicity is evaluated by seeding cells at 15,000 cells/well and treating with compound as described above.
# [2] = Hepatitis B virus, HePAD38, 120 h
SMILES,EC50 (HBV; [2]),CC50 at 3 days ([1]; class symbols),also measured
O=C(Nc1cc(F)c(F)c(F)c1)c1ccc(Cl)c(S(=O)(=O)[C@H]2CC[C@H](O)CC2)c1 [Example 3],100 to 400 nM,> 25000 nM,
O=C(Nc1cc(F)c(F)c(F)c1)c1ccc(Cl)c(S(=O)(=O)[C@H]2CC[C@@H](O)CC2)c1 [Example 4],100 to 400 nM,> 25000 nM,
O=C(Nc1cc(F)c(F)c(F)c1)c1ccc(Cl)c(S(=O)(=O)CCCO)c1 [Example 7],> 400 nM,> 25000 nM,
O=C(Nc1cc(F)c(F)c(F)c1)c1ccc(Cl)c(S(=O)(=O)[C@]2(F)CC[C@H](O)CC2)c1 [Example 8],100 to 400 nM,10000 to 25000 nM,
O=C(Nc1cc(F)c(F)c(F)c1)c1ccc(Cl)c(S(=O)(=O)[C@]2(F)CC[C@@H](O)CC2)c1 [Example 9],100 to 400 nM,10000 to 25000 nM,
C[C@]1(S(=O)(=O)c2cc(C(=O)Nc3cc(F)c(F)c(F)c3)ccc2Cl)CC[C@@H](O)CC1 [Example 16],100 to 400 nM,> 25000 nM,
C[C@]1(S(=O)(=O)c2cc(C(=O)Nc3cc(F)c(F)c(F)c3)ccc2Cl)CC[C@H](O)CC1 [Example 17],100 to 400 nM,> 25000 nM,
O=C(Nc1cc(F)c(F)c(F)c1)c1ccc(Cl)c(S(=O)(=O)Cc2cccnc2)c1 [Example 45],100 to 400 nM,> 25000 nM,
O=C(Nc1cc(F)c(F)c(F)c1)c1ccc(Cl)c(S(=O)(=O)Cc2ccncc2)c1 [Example 46],100 to 400 nM,> 25000 nM,
O=C(Nc1cc(F)c(F)c(F)c1)c1ccc(Cl)c(S(=O)(=O)Cc2ccccn2)c1 [Example 48],> 400 nM,> 25000 nM,
O=C(Nc1cc(F)c(F)c(F)c1)c1ccc(Cl)c(S(=O)(=O)[C@H]2C3CCC2C[C@](O)(CO)C3)c1 [Example 60],< 100 nM,> 25000 nM,
CC(c1ccncc1)S(=O)(=O)c1cc(C(=O)Nc2cc(F)c(F)c(F)c2)ccc1Cl (centres unmarked) [Example 80],< 100 nM,10000 to 25000 nM,
O=C(Nc1cc(F)c(F)c(F)c1)c1ccc(Cl)c(S(=O)(=O)C2CC[C@H](O)[C@@H](O)CC2)c1 [Example 84],< 100 nM,> 25000 nM,
CC(=O)[C@]1(O)CC2CC[C@@H](C1)[C@H]2S(=O)(=O)c1cc(C(=O)Nc2cc(F)c(F)c(F)c2)ccc1Cl [Example 150],< 100 nM,10000 to 25000 nM,
CN(C)C[C@]1(O)CC2CC[C@@H](C1)[C@H]2S(=O)(=O)c1cc(C(=O)Nc2cc(F)c(F)c(F)c2)ccc1Cl [Example 154],< 100 nM,< 10000 nM,
CC1=NO[C@@]2(C1)CC1CC[C@@H](C2)[C@H]1S(=O)(=O)c1cc(C(=O)Nc2cc(F)c(F)c(F)c2)ccc1Cl [Example 188],< 100 nM,,CC50 at 3 days ([1]; numeric bounds): > 12500 nM
O=C(Nc1cc(F)c(F)c(F)c1)c1ccc(Cl)c(S(=O)(=O)[C@H]2C3CC[C@H]2C[C@](O)(c2cc(-c4ccccc4)on2)C3)c1 [Example 220],< 100 nM,< 10000 nM,
C[C@]1(O)C2CCC1C[C@@H](S(=O)(=O)c1cc(C(=O)Nc3cc(F)c(F)c(F)c3)ccc1Cl)C2 [Example 246],100 to 400 nM,10000 to 25000 nM,
O=C(Nc1cc(F)c(F)c(F)c1)c1ccc(Cl)c(S(=O)(=O)[C@H]2C3CC[C@H]2C[C@]2(C3)OC(=O)[C@@H](O)[C@@H]2O)c1 [Example 338],> 400 nM,,
COC(=O)[C@@H](NC[C@]1(O)C2CCC1C[C@@H](S(=O)(=O)c1cc(C(=O)Nc3cc(F)c(F)c(F)c3)ccc1Cl)C2)C(C)C [Example 339],> 400 nM,,
CCOC(=O)[C@@H](NC[C@]1(O)C2CCC1C[C@@H](S(=O)(=O)c1cc(C(=O)Nc3cc(F)c(F)c(F)c3)ccc1Cl)C2)C(C)C [Example 340],> 400 nM,,
CC(CO)NC[C@]1(O)C2CCC1C[C@@H](S(=O)(=O)c1cc(C(=O)Nc3cc(F)c(F)c(F)c3)ccc1Cl)C2 (some centres unmarked) [Example 341],100 to 400 nM,,
CC(O)CNC[C@]1(O)C2CCC1C[C@@H](S(=O)(=O)c1cc(C(=O)Nc3cc(F)c(F)c(F)c3)ccc1Cl)C2 (some centres unmarked) [Example 342],< 100 nM,,
O=C(Nc1cc(F)c(F)c(F)c1)c1ccc(Cl)c(S(=O)(=O)[C@H]2CC3CCC(C2)[C@]3(O)C[N+]2([O-])C[C@@H](O)[C@H](O)C2)c1 [Example 343],100 to 400 nM,,

SMILES,EC50 (HBV; [2]),CC50 at 3 days ([1]; class symbols),also measured
CC(C)[C@H](NC[C@]1(O)C2CCC1C[C@@H](S(=O)(=O)c1cc(C(=O)Nc3cc(F)c(F)c(F)c3)ccc1Cl)C2)C(=O)O [Example 344],> 400 nM,,
CC(=O)NC[C@]1(O)C2CCC1C[C@@H](S(=O)(=O)c1cc(C(=O)Nc3cc(F)c(F)c(F)c3)ccc1Cl)C2 [Example 345],< 100 nM,,
CC(=O)N1C[C@]2(OC1(C)C)C1CCC2C[C@@H](S(=O)(=O)c2cc(C(=O)Nc3cc(F)c(F)c(F)c3)ccc2Cl)C1 [Example 346],< 100 nM,,
NC[C@]1(O)C2CCC1C[C@@H](S(=O)(=O)c1cc(C(=O)Nc3cc(F)c(F)c(F)c3)ccc1Cl)C2 [Example 347],100 to 400 nM,,
CC(C)(C)OC(=O)NCC(=O)NC[C@]1(O)C2CCC1C[C@@H](S(=O)(=O)c1cc(C(=O)Nc3cc(F)c(F)c(F)c3)ccc1Cl)C2 [Example 348],< 100 nM,,
C[C@H](NC(=O)OC(C)(C)C)C(=O)NC[C@]1(O)C2CCC1C[C@@H](S(=O)(=O)c1cc(C(=O)Nc3cc(F)c(F)c(F)c3)ccc1Cl)C2 [Example 349],< 100 nM,,
NCC(=O)NC[C@]1(O)C2CCC1C[C@@H](S(=O)(=O)c1cc(C(=O)Nc3cc(F)c(F)c(F)c3)ccc1Cl)C2 [Example 350],100 to 400 nM,,
C[C@H](N)C(=O)NC[C@]1(O)C2CCC1C[C@@H](S(=O)(=O)c1cc(C(=O)Nc3cc(F)c(F)c(F)c3)ccc1Cl)C2 [Example 351],100 to 400 nM,,
O=C(Nc1cc(F)c(F)c(F)c1)c1ccc(Cl)c(S(=O)(=O)[C@H]2CC3CCC(C2)[C@]3(O)C(O)CO)c1 (some centres unmarked) [Example 352],< 100 nM,,
NC(=O)O[C@]1(c2cccnc2)C2CCC1C[C@H](S(=O)(=O)c1cc(C(=O)Nc3cc(F)c(F)c(F)c3)ccc1Cl)C2 [Example 353],< 100 nM,,
O=C(Nc1ccc(F)c(F)c1)c1ccc(Cl)c(S(=O)(=O)[C@H]2CC3CCC(C2)[C@H]3O)c1 [Example 354],100 to 400 nM,,
O=C(Nc1cc(F)c(F)c(F)c1)c1ccc(Cl)c(S(=O)(=O)C2C[C@@H]3O[C@H](C2)[C@@H](O)[C@H]3O)c1 (some centres unmarked) [Example 355],> 400 nM,,
O=C(Nc1cc(F)c(F)c(F)c1)c1ccc(Cl)c(S(=O)(=O)C2C[C@H]3CC[C@@H](C2)O3)c1 (some centres unmarked) [Example 356],100 to 400 nM,,
O=C(Nc1cc(F)c(F)c(F)c1)c1ccc(Cl)c(S(=O)(=O)[C@H]2C[C@H]3CC[C@@H](C2)O3)c1 [Example 357],100 to 400 nM,,
CC(CO)NCCOC[C@]1(O)CC2CC[C@@H](C1)[C@H]2S(=O)(=O)c1cc(C(=O)Nc2cc(F)c(F)c(F)c2)ccc1Cl (some centres unmarked) [Example 358],100 to 400 nM,,
O=C(Nc1cc(F)c(F)c(F)c1)c1ccc(Cl)c(S(=O)(=O)[C@H]2CC3CCC(C2)[C@@H]3N2CCOCC2)c1 [Example 359],< 100 nM,,
O=C(Nc1cc(F)c(F)c(F)c1)c1ccc(Cl)c(S(=O)(=O)[C@H]2CC3CCC(C2)[C@@H]3O)c1 [Example 360],,,EC50 (HBV): < 100 nM
O=C(Nc1cc(F)c(F)c(F)c1)c1ccc(Cl)c(S(=O)(=O)[C@H]2CC3CCC(C2)[C@]3(O)CC(O)CO)c1 (some centres unmarked) [Example 361],< 100 nM,,
Cn1ccnc1[C@]1(O)C2CCC1C[C@@H](S(=O)(=O)c1cc(C(=O)Nc3cc(F)c(F)c(F)c3)ccc1Cl)C2 [Example 362],< 100 nM,,
CC(C)(O)C(O)[C@]1(O)C2CCC1C[C@H](S(=O)(=O)c1cc(C(=O)Nc3cc(F)c(F)c(F)c3)ccc1Cl)C2 (some centres unmarked) [Example 363],< 100 nM,,
CC(C)(C)OC(=O)N[C@@H](Cc1ccccc1)C(=O)NC[C@]1(O)C2CCC1C[C@@H](S(=O)(=O)c1cc(C(=O)Nc3cc(F)c(F)c(F)c3)ccc1Cl)C2 [Example 364],< 100 nM,,
CC(C)(C)OC(=O)N1CCC[C@H]1C(=O)NC[C@]1(O)C2CCC1C[C@@H](S(=O)(=O)c1cc(C(=O)Nc3cc(F)c(F)c(F)c3)ccc1Cl)C2 [Example 365],< 100 nM,,
N[C@@H](Cc1ccccc1)C(=O)NC[C@]1(O)C2CCC1C[C@@H](S(=O)(=O)c1cc(C(=O)Nc3cc(F)c(F)c(F)c3)ccc1Cl)C2 [Example 366],100 to 400 nM,,
